The values that follow come from patent US20230058733A1, “OGA INHIBITOR COMPOUNDS” (JANSSEN PHARMACEUTICA NV, priority 2019, published 2023).

Assay [1] deals with T1, recombinant human Meningioma Expressed Antigen 5 (MGEA5), also referred to as O-GlcNAcase (OGA) (Homo sapiens, UniProt O60502).
T1 construct: Full length OGA enzyme was purchased at OriGene (cat #TP322411); purchased OriGene TP322411
T1 sequence (O60502 1-916): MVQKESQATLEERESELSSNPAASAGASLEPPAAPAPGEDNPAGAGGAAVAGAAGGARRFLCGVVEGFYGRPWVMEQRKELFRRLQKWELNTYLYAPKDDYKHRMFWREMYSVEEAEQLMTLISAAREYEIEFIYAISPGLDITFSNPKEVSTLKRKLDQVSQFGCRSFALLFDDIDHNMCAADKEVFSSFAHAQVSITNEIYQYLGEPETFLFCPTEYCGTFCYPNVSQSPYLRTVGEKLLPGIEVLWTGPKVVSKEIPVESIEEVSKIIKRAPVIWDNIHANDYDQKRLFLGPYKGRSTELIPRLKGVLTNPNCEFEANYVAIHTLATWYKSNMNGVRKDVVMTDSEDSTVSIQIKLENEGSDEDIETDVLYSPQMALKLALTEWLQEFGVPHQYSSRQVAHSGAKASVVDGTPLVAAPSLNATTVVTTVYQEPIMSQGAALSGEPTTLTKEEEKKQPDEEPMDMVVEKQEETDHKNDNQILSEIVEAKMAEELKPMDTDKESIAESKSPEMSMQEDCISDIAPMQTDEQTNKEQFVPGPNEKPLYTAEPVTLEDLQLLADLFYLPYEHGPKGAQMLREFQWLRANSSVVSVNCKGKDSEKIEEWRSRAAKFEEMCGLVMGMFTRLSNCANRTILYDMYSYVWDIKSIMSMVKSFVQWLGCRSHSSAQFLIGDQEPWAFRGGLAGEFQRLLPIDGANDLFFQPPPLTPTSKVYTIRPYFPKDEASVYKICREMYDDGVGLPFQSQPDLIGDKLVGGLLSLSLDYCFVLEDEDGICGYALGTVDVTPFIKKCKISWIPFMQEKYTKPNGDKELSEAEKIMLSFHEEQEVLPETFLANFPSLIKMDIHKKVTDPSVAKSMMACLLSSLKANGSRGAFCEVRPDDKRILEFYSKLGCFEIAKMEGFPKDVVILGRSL
Nature of the assay: OGA biochemical assay (inhibition of FM-GlcNAc hydrolysis, fluorescence). The following applies: full length OGA 2 nM, FM-GlcNAc 100 uM; for IC50: pH 7.2, 6 h at room temperature, read-out: Enzymatic hOGA, pIC50 (converted); for Emax: relative to high and low controls, read-out: Enzymatic Emax (%). The source says: The assay is based on the inhibition of the hydrolysis of fluorescein mono-β-D-N-Acetyl-Glucosamine (FM-GlcNAc) (Mariappa et al. 2015, Biochem J 470:255) by the recombinant human Meningioma Expressed Antigen 5 (MGEA5), also referred to as O-GlcNAcase (OGA). The hydrolysis FM-GlcNAc (Marker Gene technologies, cat #M1485) results in the formation of […] and fluorescein. The fluorescence of the latter can be measured at excitation wavelength 485 nm and emission wavelength 538 nm. An increase in enzyme activity results in an increase in fluorescence signal. Full length OGA enzyme was purchased at OriGene (cat #TP322411). The enzyme was stored in 25 mM Tris.HCl, pH 7.3, 100 mM glycine, 10% glycerol at −20° C. Thiamet G and GlcNAcStatin were tested as reference compounds (Yuzwa et al. 2008 Nature Chemical Biology 4:483; Yuzwa et al. 2012 Nature Chemical Biology 8:393). The assay was performed in 200 mM Citrate/phosphate buffer supplemented with 0.005% Tween-20. 35.6 g Na2HPO4 2 H2O (Sigma, #C0759) were dissolved in 1 L water to obtain a 200 mM solution. 19.2 g citric acid (Merck, #1.06580) was dissolved in 1 L water to obtain a 100 mM solution. pH of the sodiumphosphate solution was adjusted with the citric acid solution to 7.2. The buffer to stop the reaction consists of a 500 mM Carbonate buffer, pH 11.0. 734 mg FM-GlcNAc were dissolved in 5.48 mL DMSO to obtain a 250 mM solution and was stored at −20° C. OGA was used at a 2 nM concentration and FM-GlcNAc at a 100 uM final concentration. Dilutions were prepared in assay buffer.
50 nl of a compound dissolved in DMSO was dispensed on Black Proxiplate TM 384 Plus Assay plates (Perkin Elmer, #6008269) and 3 μl fl-OGA enzyme mix added subsequently. Plates were pre-incubated for 60 min at room temperature and then 2 μl FM-GlcNAc substrate mix added. […] Plates were briefly centrifuged for 1 min at 1000 rpm and incubate at room temperature for 6 h. To stop the reaction 5 μl STOP buffer were added and plates centrifuge again 1 min at 1000 rpm. Fluorescence was quantified in the Thermo Scientific Fluoroskan Ascent or the PerkinElmer EnVision with excitation wavelength 485 nm and emission wavelength 538 nm.
For analysis a best-fit curve is fitted by a minimum sum of squares method. From this an IC50 value and Hill coefficient was obtained. High control (no inhibitor) and low control (saturating concentrations of standard inhibitor) were used to define the minimum and maximum values.

The next assay deals with T2, hOGA (Homo sapiens, UniProt O60502).
T2 construct: HEK293 cells inducible for P301L mutant human Tau (isoform 2N4R) were established at Janssen; endogenous in cells; host or cells: HEK293 cells inducible for P301L mutant human Tau (2N4R)
T2 sequence (O60502 1-916): T1 sequence (O60502 1-916)
Nature of the assay: OGA cellular assay (ICC detection of O-GlcNAcylated proteins in HEK293 cells inducible for P301L mutant human Tau). It counts as cell-based. Conditions: for EC50: HEK293 cells inducible for P301L mutant human Tau (2N4R), 6 hours incubation, O-GlcNAcylation readout at 488 nm, read-out: Cellular hOGA, pEC50 (converted); for Emax: HEK293 cells inducible for P301L mutant human Tau, maximum defined by Thiamet G at 200 uM. As to the method:
HEK293 cells inducible for P301L mutant human Tau (isoform 2N4R) were established at Janssen. Thiamet-G was used for both plate validation (high control) and as reference compound (reference EC50 assay validation). OGA inhibition is evaluated through the immunocytochemical (ICC) detection of O-GlcNAcylated proteins by the use of a monoclonal antibody (CTD110.6; Cell Signaling, #9875) detecting 0-GlcNAcylated residues as previously described (Dorfmueller et al. 2010 Chemistry & biology, 17:1250). Inhibition of OGA will result in an increase of O-GlcNAcylated protein levels resulting in an increased signal in the experiment. Cell nuclei are stained with Hoechst to give a cell culture quality control and a rough estimate of immediate compounds toxicity, if any. ICC pictures are imaged with a Perkin Elmer Opera Phenix plate microscope and quantified with the provided software Perkin Elmer Harmony 4.1.
Cells were propagated in DMEM high Glucose (Sigma, #D5796) following standard procedures. 2 days before the cell assay cells are split, counted and seeded in Poly-D-Lysine (PDL) coated 96-wells (Greiner, #655946) plate at a cell density of 12,000 cells per cm^2 (4,000 cells per well) in 100 μl of Assay Medium (Low Glucose medium is used to reduce basal levels of GlcNAcylation) (Park et al. 2014 The Journal of biological chemistry 289:13519). At the day of compound test medium from assay plates was removed and replenished with 90[d of fresh Assay Medium. 10 μl of compounds at a 10 fold final concentration were added to the wells. Plates were centrifuged shortly before incubation in the cell incubator for 6 hours. DMSO concentration was set to 0.2%. Medium is discarded by applying vacuum. For staining of cells medium was removed and cells washed once with 100 μl D-PBS (Sigma, #D8537). From next step onwards unless other stated assay volume was always 50 μl and incubation was performed without agitation and at room temperature. Cells were fixed in 50 μl of a 4% paraformaldehyde (PFA, Alpha aesar, #043368) PBS solution for 15 minutes at room temperature. […] Before analysis samples were washed 2 times manually for 5 minutes in ICC base buffer.
Imaging is performed using Perkin Elmer Phenix Opera using a water 20× objective and recording 9 fields per well. Intensity readout at 488 nm is used as a measure of O-GlcNAcylation level of total proteins in wells. To assess potential toxicity of compounds nuclei were counted using the Hoechst staining. IC50-values are calculated using parametric non-linear regression model fitting. As a maximum inhibition Thiamet G at a 200 uM concentration is present on each plate. In addition, a concentration response of Thiamet G is calculated on each plate.

Consider `Cc1cc(C)c(Nc2nncc3c2ccn3CC(=O)N(C)C)c(C)c1` [Co. No. 5], for which, in assay [1], the IC50 is 4.27 nM and the Emax (as a rule, the size of the effect at its maximum, as opposed to the concentration needed) turned out to be 99%. Besides, on hOGA, the EC50 is 21.4 nM and the Emax came to 92%.
`Cc1cc(C(F)(F)F)cc(C)c1Nc1nncc2c1ccn2CC(=O)N(C)C` [Co. No. 1]: in assay [1], the IC50 was 15.1 nM and the Emax was 101%. At hOGA, the EC50 is 24 nM and the Emax was 68%.
For `Cc1cc(Cl)cc(C(F)(F)F)c1Nc1nncc2c1ccn2CC(=O)N(C)C` [Co. No. 4], in assay [1], the IC50 was 19.1 nM and the Emax amounted to 100%. Besides, at hOGA, the EC50 was 74.1 nM and the Emax stood at 63%.
As for `Cc1ccnc(C(C)C)c1Nc1nncc2c1ccn2CC(=O)N(C)C` [Co. No. 2], in assay [1], the IC50 was 21.4 nM and the Emax was determined as 98%. For the same compound, at hOGA, the EC50 is 138 nM and the Emax was determined as 138%.
For `Cc1cc(OC(F)(F)F)cc(Cl)c1Nc1nncc2c1ccn2CC(=O)N(C)C` [Co. No. 3], in that order: 6.31 nM, 101%, 15.8 nM and 108%.
